From patent US6114302A, “Fragrance pro-accords” (The Procter & Gamble Company, priority 1999, dated 2000)

Experiment: Fragrance Release Half-life (hydrolysis kinetics of pro-accord monitored by HPLC)
Format: physicochemical
Conditions: 90/10 dioxane/phosphate buffered water, buffer pH approximately 2.5, HPLC at 30° C.
Description: For the purposes of the present invention the pro-accords generally have a "Fragrance Release Half-life" of less than or equal to 12 hours when measured in NaH2 PO4 buffer at pH 2.5 and greater than or equal to 0.1 hour when measured in NaH2 PO4 buffer at pH 5.3. The "Fragrance Release Half-life" is defined herein as follows.
The rate at which the accord is released is defined by the formula: […]
and can be further expressed by the formula: [formula] wherein k is the release rate constant and [Pro-accord] is the concentration of pro-accord. For the purposes of the present invention the "Fragrance Release Half-life", t1/2, is related to the release rate constant by the formula: [formula] and this relationship is used for the purposes of the present invention to determine the "fragrance Release Half-life" (FRHL).
Due to the hydrophobic nature of some pro-accords, it is necessary to conduct the determination of t1/2 and k in a mixture of 90/10 dioxane/phosphate buffered water. […] Next 10 mL of the phosphate buffer is admixed with 90 mL of dioxane and the pro-fragrance to be analyzed is added. The hydrolysis kinetics are then monitored by conventional HPLC at 30° C. […]
*t1/2 for the purposes of the present invention is measured in […]

SMILES	t1/2 (Fragrance Release Half-life) [h]
c1ccc(CCOC(OCCc2ccccc2)OCCc2ccccc2)cc1 [tris(phenylethyl) orthoformate, Tris(phenylethyl) Orthoformate]	5.9
c1ccc(CCOC(OCCc2ccccc2)(OCCc2ccccc2)OCCc2ccccc2)cc1 [tetrakis(phenylethyl) orthocarbonate, Tetrakis(phenylethyl) Orthocarbonate]	4.8
